Key:
[1] = Therapeutic drug monitoring of vancomycin serum concentration (chemiluminescence immunoassay); format: in vivo, human; conditions: mostly steady state (>4 doses) trough, 895 observations from 560 patients, dose 951.19 ± 152.23 mg/time, SD
Experimental: Inclusion criteria were: 1) age ≥18 years; 2) therapeutic drug monitoring was performed during treatment and at least 1 vancomycin concentration was obtained. Exclusion criteria were: 1) pregnant women ([Lin et al., 2021]); 2) cystic fibrosis ([Jing et al., 2020]).
(§1) The dosage regimen of vancomycin is adjusted by the clinicians according to the patient’s conditions and renal function, including 1 g Qd, 1 g Q12h, 1 g Q8h, 0.5 g Qd, 0.5 g Q12h, 0.5 g Q8h and 0.5 g Q6h. The infusion time cannot be accurately obtained, but 1 h infusion was most used in clinical applications, so the default infusion time in this study was 1 h. Vancomycin serum concentrations were obtained from patient’s therapeutic drug monitoring data, most of which were steady state (>4 doses) trough concentrations. The blood samples were anticoagulated by Ethylene Diamine Tetraacetic Acid, centrifuged at 5,000 rpm for 3 min and analyzed by chemiluminescence immunoassay (ADVIA Centaur® XP, Siemens). Sample calibration and quality control were carried out in accordance with the manufacturer’s instructions and the calibration range was 0.67–90 mg/L.

[2] = fixed, not estimated, ref Jing et al., 2020, cited from earlier work
[3] = ref Rybak, 2006, cited from earlier work
[4] = ref Lin Wu et al., 2015; cited from earlier work
[5] = Population pharmacokinetic (NLME, one-compartment) model of vancomycin in postoperative neurosurgical patients
Experimental: The data of patients who received vancomycin therapy from October 2018 to March 2022 in Beijing Tiantan Hospital, Capital Medical University were retrospectively collected. Inclusion criteria were: 1) age ≥18 years; 2) therapeutic drug monitoring was performed during treatment and at least 1 vancomycin concentration was obtained. Exclusion criteria were: 1) pregnant women ([Lin et al., 2021]); 2) cystic fibrosis ([Jing et al., 2020]).
as §1
In this study, nonlinear mixed effects modeling (NLME) method was used to construct the PPK model. Pharmacokinetic parameters and the variability were assessed using the first-order conditional estimation with extended least square method (FOCE-ELS) by using the Phoenix® NLME software (version 8.3; Certara, St. Louis, Missouri). Bootstrap and visual predictive check (VPC) were used to test the stability and predictive ability of the final model.
The one-compartment model with first-order elimination was used to describe the pharmacokinetic characteristics of vancomycin. The sparse trough concentration data led to the inaccurate estimation of the V. Therefore, the population typical value of V was fixed at 60.2 L according to a PPK model in Chinese neurosurgery adult patients ([Jing et al., 2020]).
Inter-individual variability (η) of PPK model was described by exponential random effect model in Eq. 1. Residual variability (ε) was described by combined (multiplicative and additive) error model in Eq. 2. The η was assumed to follow a normal distribution with a mean of zero and a variance of ω ^2. The ε was assumed to follow a normal distribution with a mean of zero and a variance of σ ^2. θi=θTV×e^ηi, (1) Cobs=Cpred+ε×1+(Cpred×σ1/σ2)^2 (2) where θ TV is the population typical value of pharmacokinetic parameters, θ i is the individual (i ^th) pharmacokinetic parameters. Cobs and Cpred respectively represent the measured concentration and predicted concentration of a patient; σ 1 represents the multiplicative σ, and σ 2 represents the standard deviation of ε.
Continuous covariates included age, height, BW, body mass index, serum creatinine (Scr), creatinine clearance (CLcr) and estimated glomerular filtration rate (eGFR). Categorical covariates included sex, RRT and concomitant drugs (mannitol, meropenem and diuretics). CLcr is calculated by the Cockcroft-Gault equation ([Cockcroft and Gault, 1976]). eGFR is calculated by the Chronic Kidney Disease Epidemiology Collaboration (CKD-EPI) equation ([Kong et al., 2013]). All continuous covariates are centered at their median values. The difference of the objective function value (OFV) was used to compare the models.
After the establishment of the base model, the effects of covariates on pharmacokinetic parameters were tested by forward addition and backward elimination under stepwise manner. In the forward addition, if the decrease of OFV was greater than 6.64 (p < 0.01, df = 1), the covariate was considered to have a significant influence on the model parameters.

## CN[C@H](CC(C)C)C(=O)N[C@H]1C(=O)N[C@@H](CC(N)=O)C(=O)N[C@H]2C(=O)N[C@H]3C(=O)N[C@H](C(=O)N[C@H](C(=O)O)c4cc(O)cc(O)c4-c4cc3ccc4O)[C@H](O)c3ccc(c(Cl)c3)Oc3cc2cc(c3O[C@@H]2O[C@H](CO)[C@@H](O)[C@H](O)[C@H]2O[C@H]2C[C@](C)(N)[C@H](O)[C@H](C)O2)Oc2ccc(cc2Cl)[C@H]1O [vancomycin, Vancomycin]
[1]
  Concentration (mg/L), mean ± standard deviation: 14.20 ± 7.36 mg/L
[2]; base model
  V (L), base model: 60.2 L
[2]; bootstrap
  V (L), Bootstrap: 60.2 L
[2]; final model
  V (L), apparent distribution volume, final model: 60.2 L
[3]; oral
  absorption by oral administration: almost not absorbed
[3]; patients with normal renal function, printed as 'approximately'
  α half-life: 30 to 60 min
[3]; patients with normal renal function
  terminal elimination half-life: 3 to 9 h
[3]; printed as 'about'
  protein binding rate: 10%–50%
[3]; within 24 h after administration
  share of vancomycin excreted in prototype through the kidney: more than 80%
[4]
  V in another eligible study: 54 ± 17 L
[5]; A in e^A of the CL equation when co-medicated with mannitol, final model
  Mannitol on CL (L/h), final model, Estimate (%RSE): 0.13 (17.85) L/h
[5]; A in e^A when co-medicated with mannitol, bootstrap, 5,000 data sets
  Mannitol on CL (L/h), Bootstrap Median (%RSE): 0.13 (17.72) L/h
[5]; base model without covariates
  CL (L/h), base model, Estimate (%RSE): 8.08 (1.93) L/h
[5]; bootstrap of final model, 5,000 data sets
  CL (L/h), Bootstrap Median (%RSE): 7.97 (2.24) L/h
[5]; exponent of (BW/70) in the CL equation, final model
  BW on CL (L/h), final model, Estimate (%RSE): 0.30 (20.19) L/h
[5]; exponent of (BW/70), bootstrap, 5,000 data sets
  BW on CL (L/h), Bootstrap Median (%RSE): 0.30 (19.91) L/h
[5]; exponent of (eGFR/115.2), bootstrap, 5,000 data sets
  eGFR on CL (L/h), Bootstrap Median (%RSE): 0.80 (4.39) L/h
[5]; final model, one-compartment, FOCE-ELS, 895 concentrations from 560 patients, iv infusion, covariates centred at eGFR 115.2, BW 70, no mannitol
  CL (L/h), population typical value, final model, Estimate (%RSE): 7.98 (1.90) L/h
[5]; final model, with versus without mannitol
  increase in vancomycin CL when co-medicated with mannitol: 14%
[5]; this study, postoperative neurosurgical patients
  typical value of vancomycin CL per body weight: 0.11 L/h/kg
